Assay results: the supplement of paper PMC10307832

Key:
Assay in all cases: relative viability (nuclei count vs DMSO), 5 days (fraction); higher = more cells survive
[1] = compound: CN[C@@H]1C[C@H]2O[C@@](C)([C@@H]1OC)n1c3ccccc3c3c4c(c5c6ccccc6n2c5c31)C(=O)NC4 [Staurosporine] + Cc1nc(NC(=O)N2CCC[C@H]2C(N)=O)sc1-c1ccnc(C(C)(C)C(F)(F)F)c1 [Alpelisib] (partner 2 µM)
Summary of the method: (§1)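 Relative viability was taken as the ratio of nuclei in treated wells to nuclei in vehicle wells. Lung cancer cell lines in 1536-well plates received compounds by pin tool one day after seeding, either one drug alone or a fixed anchor-drug dose plus five library-drug doses (not always all listed) in √10 steps. Nuclei were counted on 4× images after 5 days of treatment, and values are medians of duplicate plates.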

[2] = compound: CN[C@@H]1C[C@H]2O[C@@](C)([C@@H]1OC)n1c3ccccc3c3c4c(c5c6ccccc6n2c5c31)C(=O)NC4 [Staurosporine] + CC(C)C[C@H](NC(=O)[C@H](Cc1ccccc1)NC(=O)c1cnccn1)B(O)O [Bortezomib] (partner 0.002 µM)
Summary of the method: as §1

[3] = compound: CC1=C(CC(=O)O)c2cc(F)ccc2/C1=C\c1ccc([S+](C)[O-])cc1 [Sulindac] + O=C(CCCCCCC(=O)Nc1ccccc1)NO [Vorinostat] (partner 1 µM)
Summary of the method: as §1

[4] = compound: CC1=C(CC(=O)O)c2cc(F)ccc2/C1=C\c1ccc([S+](C)[O-])cc1 [Sulindac] + NC(=O)Nc1cc(-c2cccc(F)c2)sc1C(=O)N[C@H]1CCCNC1 [AZD7762] (partner 0.2 µM)
Summary of the method: as §1

Cell Line | relative viability ([1]; first compound 0.005 µM) | relative viability ([1]; first compound 0.05 µM) | relative viability ([1]; first compound 0.1581 µM) | relative viability ([1]; first compound 0.5 µM) | relative viability ([2]; first compound 0.005 µM) | relative viability ([2]; first compound 0.05 µM) | relative viability ([2]; first compound 0.1581 µM) | relative viability ([2]; first compound 0.5 µM) | relative viability ([3]; first compound 0.08 µM) | relative viability ([3]; first compound 0.253 µM) | relative viability ([3]; first compound 0.8 µM) | relative viability ([3]; first compound 2.53 µM) | relative viability ([3]; first compound 8 µM) | relative viability ([4]; first compound 0.08 µM) | relative viability ([4]; first compound 0.253 µM) | relative viability ([4]; first compound 0.8 µM) | relative viability ([4]; first compound 2.53 µM) | relative viability ([4]; first compound 8 µM) | relative viability ([1]; first compound 0.01581 µM) | relative viability ([2]; first compound 0.01581 µM)
LXF-289 | 0.902 | 0.197 | 0.0563 | 0.0673 | 0.822 | 0.257 | 0.122 | 0.0797 | 0.867 | 0.797 | 0.636 | 0.83 | 0.797 | 1.15 | 1.15 | 0.987 | 1.21 | 1.24 |  | 
NCI-H23 | 0.437 | 0.218 | 0.206 | 0.131 | 0.975 | 0.259 | 0.155 | 0.107 | 0.577 | 0.684 | 0.607 | 0.38 | 0.702 | 0.294 | 0.22 | 0.273 | 0.256 | 0.232 | 0.317 | 0.215
NCI-H322M | 0.74 | 0.725 | 0.446 | 0.328 | 1.3 | 0.993 | 0.78 | 0.742 | 0.859 | 0.914 | 0.882 | 0.916 | 0.863 | 0.469 | 0.42 | 0.573 | 0.575 | 0.546 | 0.723 | 1.14
NCI-H441 | 0.615 | 0.316 | 0.218 | 0.229 | 0.391 | 0.212 | 0.133 | 0.126 | 1.02 | 0.936 | 0.599 | 0.782 | 0.981 | 1.24 | 1.03 | 0.798 | 1.18 | 1.38 | 0.328 | 0.209
NCI-H460 | 0.367 | 0.024 | 0.0141 | 0.0076 | 1.08 | 0.463 | 0.0074 | 0.0085 | 1.35 | 0.614 | 0.623 | 0.994 | 0.795 | 0.984 | 0.639 | 0.812 | 0.64 | 0.846 | 0.198 | 0.733
NCI-H596 | 0.59 | 0.284 | 0.174 | 0.165 | 1.38 | 1 | 0.282 | 0.393 | 0.589 | 0.606 |  | 0.578 | 0.612 | 1.06 | 1.16 |  | 1.23 | 1.27 | 0.325 | 0.549
NCI-H647 | 0.51 | 0.117 | 0.0645 | 0.0592 | 0.532 | 0.285 | 0.0743 | 0.0533 | 0.604 | 0.952 | 0.409 | 0.628 | 0.549 | 0.592 | 0.5 | 0.362 | 0.575 | 0.488 | 0.218 | 0.164
NCI-H650 | 0.517 | 0.306 | 0.288 | 0.178 | 0.504 | 0.315 | 0.212 | 0.206 | 0.506 | 0.429 | 0.334 | 0.379 | 0.579 | 1.03 | 0.899 | 0.766 | 0.914 | 0.978 | 0.318 | 0.283
